Where two headings read alike, the source gives them in different places.
Columns and labels:
Assay type in all cases: in vivo
[1] = tested on: Beet Armyworm (Spodoptera exigua, LAPHEG); assay: Bioassays on Beet Armyworm (BAW), 128-well diet tray assay; settings: Spodoptera exigua; for mortality at 50 µg/cm2: 168 h, second instar larvae, 50 μg/cm^2 of test molecule on artificial diet, 25° C., five to seven days, average of eight wells, read-out: BAW % Control (or Mortality) rating
Summary of the method: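 Eight diet wells per compound were treated at 50 μg/cm^2 (acetone-water 90:10), dried, then infested with 1–5 second-instar larvae each. After five to seven days at 25 °C under 14:10 photoperiod, mortality was scored and averaged across wells.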

[2] = tested on: Yellow Fever Mosquito (Aedes aegypti, AEDSAE); settings: for YFM rating: Yellow Fever Mosquito, Table ABC / ABC-DP rating; for YFM % Control (or Mortality) rating: about 1 day-old larvae, 4000 ppm master solution diluted with 90:10 water/acetone, 15 μL per well plus 220 μL larval mixture, 3 days; for YFM: Table ABC: Biological Results, species YFM
Procedure: Certain molecules disclosed in this document were tested against YFM using procedures described in the following paragraph. In the reporting of the results, the “GPA & YFM Rating Table” was used (See Table Section).
Master plates containing 400 μg of a molecule dissolved in 100 μL of dimethyl sulfoxide (DMSO) (equivalent to a 4000 ppm solution) are used. A master plate of assembled molecules contains 15 μL per well. To this plate, 135 μL of a 90:10 water/acetone mixture is added to each well. A robot (Biomek® NXP Laboratory Automation Workstation) is programmed to dispense 15 μL aspirations from the master plate into an empty 96-well shallow plate (“daughter” plate). There are 6 reps (“daughter” plates) created per master. The created “daughter” plates are then immediately infested with YFM larvae.
The day before plates are to be treated, mosquito eggs are placed in Millipore water containing liver powder to begin hatching (4 g into 400 mL). After the “daughter” plates are created using the robot, they are infested with 220 μL of the liver powder/larval mosquito mixture (about 1 day-old larvae). After plates are infested with mosquito larvae, a non-evaporative lid is used to cover the plate to reduce drying. Plates are held at room temperature for 3 days prior to grading. After 3 days, each well is observed and scored based on mortality. The results are indicated in the table entitled “Table ABC: Biological Results” (See Table Section).

[3] = tested on: Cabbage Looper (Trichoplusia ni, TRIPNI); assay: Bioassays on Cabbage Looper (CL), 128-well diet tray assay; settings: Trichoplusia ni; for mortality at 50 µg/cm2: 168 h, second instar larvae, 50 μg/cm^2 of test molecule on artificial diet, 25° C., five to seven days, average of eight wells, read-out: CL % Control (or Mortality) rating
Summary of the method: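 Activity is mean percent mortality over eight wells of second-instar larvae exposed to diet treated at 50 μg/cm^2 for 5–7 days at 25° C.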

[4] = Beet Armyworm, Table ABC / ABC-DP rating, read-out: BAW rating
[5] = Cabbage Looper, Table ABC / ABC-DP rating, read-out: CL rating
[6] = Table ABC: Biological Results, species BAW, read-out: BAW
[7] = Table ABC: Biological Results, species CL, read-out: CL

| SMILES | mortality at 50 µg/cm2 [1] | pest or weed control at 50 µg/cm2 [1, 4] | YFM rating [2] | YFM % Control (or Mortality) rating [2] | mortality at 50 µg/cm2 [3] | pest or weed control at 50 µg/cm2 [3, 5] | pest or weed control at 50 µg/cm2 [1, 6] | YFM [2] | pest or weed control at 50 µg/cm2 [3, 7] |
| --- | --- | --- | --- | --- | --- | --- | --- | --- | --- |
| Cc1cc(N)ccc1NC(=O)c1cc(NC(=O)[C@H]2[C@H](c3ccc(Cl)c(Cl)c3)C2(Cl)Cl)ccc1Cl (relative stereo) [DP1, trans-N-(4-amino-2-methylphenyl)-2-chloro-5-(2,2-dichloro-3-(3,4-dichlorophenyl)cyclopropane-1-carboxamido)benzamide] | 50 to 100% | 50 to 100% | A (80–100) | A (80–100) | 50 to 100% | 50 to 100% | – | – | – |
| Cc1cc(N)ccc1NC(=O)c1cc(NC(=O)[C@H]2[C@H](c3cc(Cl)cc(Cl)c3)C2(Cl)Cl)ccc1Cl (relative stereo) [DP4, trans-N-(4-Amino-2-methylphenyl)-2-chloro-5-(2,2-dichloro-3-(3,5-dichlorophenyl)cyclopropane-1-carboxamido)benzamide] | 50 to 100% | 50 to 100% | A (80–100) | A (80–100) | 50 to 100% | 50 to 100% | – | – | – |
| Cc1cc(NC(=O)OC(C)(C)C)ccc1NC(=O)c1cc(NC(=O)[C@H]2[C@H](c3cc(Cl)cc(Cl)c3)C2(Cl)Cl)ccc1Cl (relative stereo) [DP10, trans-tert-butyl-(4-(2-chloro-5-(2,2-dichloro-3-(3,5-dichlorophenyl)cyclopropane-1-carboxamido)benzamido)-3-methylphenyl)carbamate] | 50 to 100% | 50 to 100% | A (80–100) | A (80–100) | 50 to 100% | 50 to 100% | – | – | – |
| O=C(Nc1cc(F)c(F)c(Br)c1)c1cc(NC(=O)[C@H]2[C@H](c3cc(Cl)cc(Cl)c3)C2(Cl)Cl)ccc1Cl (relative stereo) [DP11, trans-N-(3-Bromo-4,5-difluorophenyl)-2-chloro-5-(2,2-dichloro-3-(3,5-dichlorophenyl)cyclopropane-1-carboxamido)benzamide] | 50 to 100% | 50 to 100% | A (80–100) | A (80–100) | 50 to 100% | 50 to 100% | – | – | – |
| O=C(Nc1ccc(F)cc1F)c1cc(NC(=O)[C@H]2[C@H](c3cc(C(F)(F)F)ccc3Cl)C2(Cl)Cl)ccc1Cl (relative stereo) [F1004, trans-2-Chloro-5-(2,2-dichloro-3-(2-chloro-5-(trifluoromethyl)phenyl)cyclopropane-1-carboxamido)-N-(2,4-difluorophenyl)benzamide] | – | – | – | – | – | – | 50 to 100% | A (80–100) | 50 to 100% |
| O=C(Nc1ccc(F)cc1)c1cc(NC(=O)[C@H]2[C@H](c3cc(Cl)c(Cl)c(Br)c3)C2(Cl)Cl)ccc1Cl (relative stereo) [F1005, trans-5-(3-(3-bromo-4,5-dichlorophenyl)-2,2-dichlorocyclopropane-1-carboxamido)-2-chloro-N-(4-fluorophenyl)benzamide] | – | – | – | – | – | – | 50 to 100% | A (80–100) | 50 to 100% |
| O=C(Nc1ccc(F)cc1F)c1cc(NC(=O)[C@H]2[C@H](c3cc(Cl)c(Br)c(Cl)c3)C2(Cl)Cl)ccc1Cl (relative stereo) [F1006, trans-5-(3-(4-Bromo-3,5-dichlorophenyl)-2,2-dichlorocyclopropane-1-carboxamido)-2-chloro-N-(2,4-difluorophenyl)benzamide] | – | – | – | – | – | – | 50 to 100% | A (80–100) | 50 to 100% |
| O=C(Nc1ccc(F)cc1F)c1cc(NC(=O)[C@H]2[C@H](c3c(F)c(F)c(F)c(F)c3F)C2(Cl)Cl)ccc1Cl (relative stereo) [F1009, trans-2-Chloro-5-(2,2-dichloro-3-(perfluorophenyl)cyclopropane-1-carboxamido)-N-(2,4-difluorophenyl)benzamide] | – | – | – | – | – | – | 50 to 100% | A (80–100) | 50 to 100% |
| Cc1cc(NCc2ccc(Cl)cc2)ccc1NC(=O)c1cc(NC(=O)[C@H]2[C@H](c3cc(Cl)cc(Cl)c3)C2(Cl)Cl)ccc1Cl (relative stereo) [F1010, trans-2-chloro-N-(4-((4-chlorobenzyl)amino)-2-methylphenyl)-5-(2,2-dichloro-3-(3,5-dichlorophenyl)cyclopropane-1-carboxamido)benzamide] | – | – | – | – | – | – | 50 to 100% | A (80–100) | 50 to 100% |
| CCNC(=O)c1cc(NC(=O)[C@H]2[C@H](c3ccc(F)c(Cl)c3)C2(Cl)Cl)cc(F)c1OC (relative stereo) [F2057, trans-5-(2,2-Dichloro-3-(3-chloro-4-fluorophenyl)cyclopropane-1-carboxamido)-N-ethyl-3-fluoro-2-methoxybenzamide] | – | – | A (80–100) | – | – | 50 to 100% | – | – | – |
| O=C(NNc1ccc(C(F)(F)F)cc1)c1cc(NC(=O)[C@H]2[C@H](c3cc(Cl)cc(Cl)c3)C2(Cl)Cl)ccc1Cl (relative stereo) [F2571, trans-2,2-Dichloro-N-(4-chloro-3-(2-(4-(trifluoromethyl)phenyl)hydrazine-1-carbonyl)phenyl)-3-(3,5-dichlorophenyl)cyclopropane-1-carboxamide] | – | – | A (80–100) | A (80–100) | – | – | – | – | – |
| O=C(NCC(F)(F)F)c1c(Cl)ccc(NC(=O)[C@H]2[C@H](c3ccc(F)c(Cl)c3)C2(Cl)Cl)c1F [F2072, 6-Chloro-3-((1R,3R)-2,2-dichloro-3-(3-chloro-4-fluorophenyl)cyclopropane-1-carboxamido)-2-fluoro-N-(2,2,2-trifluoroethyl)benzamide] | – | 50 to 100% | – | – | – | 50 to 100% | – | – | – |
| O=C(NCC(F)(F)C(F)(F)F)c1c(Cl)ccc(NC(=O)[C@H]2[C@H](c3ccc(F)c(Cl)c3)C2(Cl)Cl)c1F [F2073, 6-Chloro-3-((1R,3R)-2,2-dichloro-3-(3-chloro-4-fluorophenyl)cyclopropane-1-carboxamido)-2-fluoro-N-(2,2,3,3,3-pentafluoropropyl)benzamide] | – | 50 to 100% | – | – | – | 50 to 100% | – | – | – |
| O=C(NCCCCl)c1c(Cl)ccc(NC(=O)[C@H]2[C@H](c3ccc(F)c(Cl)c3)C2(Cl)Cl)c1F [F2074, 6-Chloro-N-(3-chloropropyl)-3-((1R,3R)-2,2-dichloro-3-(3-chloro-4-fluorophenyl)cyclopropane-1-carboxamido)-2-fluorobenzamide] | – | 50 to 100% | – | – | – | 50 to 100% | – | – | – |
| CCNC(=O)c1cc(NC(=O)[C@H]2[C@H](c3ccc(F)c(C(F)(F)F)c3)C2(Cl)Cl)c(F)cc1Cl [F2083, 2-Chloro-5-((1R,3R)-2,2-dichloro-3-(4-fluoro-3-(trifluoromethyl)phenyl)cyclopropane-1-carboxamido)-N-ethyl-4-fluorobenzamide] | – | – | B (More than 0 – Less than 80) | – | – | 50 to 100% | – | – | – |
| O=C(NCC(F)(F)F)c1cc(NC(=O)[C@H]2[C@H](c3ccc(F)c(C(F)(F)F)c3)C2(Cl)Cl)c(F)cc1Cl [F2084, 2-Chloro-5-((1R,3R)-2,2-dichloro-3-(4-fluoro-3-(trifluoromethyl)phenyl)cyclopropane-1-carboxamido)-4-fluoro-N-(2,2,2-trifluoroethyl)benzamide] | – | 50 to 100% | – | – | – | 50 to 100% | – | – | – |
| O=C(NCC(F)(F)F)c1cc(NC(=O)[C@H]2[C@H](c3ccc(F)c(F)c3)C2(Cl)Cl)ccc1Cl [F2099, 2-Chloro-5-((1R,3R)-2,2-dichloro-3-(3,4-difluorophenyl)cyclopropane-1-carboxamido)-N-(2,2,2-trifluoroethyl)benzamide] | – | 50 to 100% | – | – | – | 50 to 100% | – | – | – |
| O=C(NCC(F)(F)F)c1cc(NC(=O)[C@@H]2[C@@H](c3ccc(F)c(F)c3)C2(Cl)Cl)ccc1Cl [F2100, 2-Chloro-5-((1S,3S)-2,2-dichloro-3-(3,4-difluorophenyl)cyclopropane-1-carboxamido)-N-(2,2,2-trifluoroethyl)benzamide] | – | 50 to 100% | – | – | – | 50 to 100% | – | – | – |
